Calls of active or inactive are those of the source. The calls are words filed in the database; no cut-off is given here.
Columns and labels:
Mus musculus [1] = test: Anticoagulant activity in Swiss albino mouse assessed as tail bleeding time at 50 mg/kg, iv measured after 5 hrs (reference value: 45.3 +/- 2.5 sec); format: functional
Mus musculus [2] = test: Anticoagulant activity in Swiss albino mouse assessed as plasma clotting time at 50 mg/kg, iv measured after 5 hrs (reference value: 175.5 +/- 9.1 sec); format: functional
Mus musculus [3] = test: Anticoagulant activity in Swiss albino mouse assessed as increase in activated partial thromboplastin time at 50 mg/kg, iv measured after 5 hrs relative to control; format: functional
Mus musculus [4] = test: Anticoagulant activity in Swiss albino mouse assessed as increase in prothrombin time at 50 mg/kg, iv measured after 5 hrs relative to control; format: functional
Blood [5] = test: Thrombolytic activity in goat non-heated blood clot assessed as plasmin activation at 1 uM using V0882 as substrate incubated for 20 mins measured for 15 mins; format: functional, Capra hircus
Blood [6] = test: Thrombolytic activity in goat heated blood clot assessed as plasmin activation at 1 uM using V0882 as substrate incubated for 20 mins measured for 15 mins; format: functional, Capra hircus
Prothrombin [7] = target: T1, Prothrombin (Homo sapiens, UniProt P00734); test: Inhibition of thrombin in human platelet rich plasma assessed as reduction in thrombin-induced platelet aggregation after 5 mins
Prothrombin [8] = target: T1, Prothrombin; test: Inhibition of human thrombin at 7.5 uM using T1637 as substrate preincubated for 30 mins followed by heparin addition by SDS-PAGE analysis
Prothrombin [9] = target: T1, Prothrombin; test: Uncompetitive inhibition of human thrombin using T1637 as substrate by Michaelis-Menten plot analysis
Mus musculus [10] = test: Defibrinogenation activity in Swiss albino mouse plasma at 50 mg/kg, iv measured after 5 hrs; format: functional, organism-based
Prothrombin [11] = target: T1, Prothrombin; test: Binding affinity to human thrombin by isothermal calorimetric titration method
Mus musculus [12] = test: Antithrombotic activity in Swiss albino mouse tail thrombosis model assessed as inhibition of k-carrageenan-induced thrombus formation at 25 mg/kg, po administered for one week followed by k-carrageenan challenge 30 mins post last compound dose and measured after 48 hrs; format: functional
HEK293 = test: Cytotoxicity against HEK293 cells assessed as decrease in cell viability at 50 uM after 24 hrs by MTT assay; format: cell-based; conditions: human, hek293, 24 h
Mus musculus [13] = test: Antithrombotic activity in Swiss albino mouse tail thrombosis model assessed as inhibition of k-carrageenan-induced thrombus formation at 25 mg/kg, po administered for one week followed by k-carrageenan challenge 30 mins post last compound dose and measured after 24 hrs; format: functional
Blood [14] = test: Thrombolytic activity in goat non-heated blood clot assessed as plasmin activation at 1 uM using V0882 as substrate incubated for 20 mins measured for 15 mins in presence of serine protease inhibitor PMSF; format: functional, tissue-based; conditions: Capra hircus
[15] = target: Coagulation factor X (Homo sapiens) (UniProt P00742); test: Inhibition of human factor 10a assessed as prothrombin activation using F3301 as substrate
Coagulation factor X (Homo sapiens), sequence (P00742 41-179 limits assumed): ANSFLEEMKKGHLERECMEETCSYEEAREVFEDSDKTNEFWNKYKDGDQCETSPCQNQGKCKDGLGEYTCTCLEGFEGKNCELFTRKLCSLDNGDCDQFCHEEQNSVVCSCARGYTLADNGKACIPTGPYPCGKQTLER
Coagulation factor X (Homo sapiens), sequence (P00742 235-488 limits assumed): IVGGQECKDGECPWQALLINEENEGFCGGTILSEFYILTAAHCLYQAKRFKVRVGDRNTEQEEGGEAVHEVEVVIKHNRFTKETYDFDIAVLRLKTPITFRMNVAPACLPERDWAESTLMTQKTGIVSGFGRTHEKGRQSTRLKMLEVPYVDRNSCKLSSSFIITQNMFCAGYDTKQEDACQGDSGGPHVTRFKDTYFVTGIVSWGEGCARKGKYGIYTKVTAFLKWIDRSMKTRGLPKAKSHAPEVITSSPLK

Heterodera schachtii [16] = test: Binding affinity to human fibrinogen at 1.25 to 15 uM after 3 mins by fluorescence spectrometric analysis
Heterodera schachtii [17] = test: Inhibition of human fibrinogen at 5 uM after 120 mins by SDS-PAGE analysis
Mus musculus [18] = test: Antithrombotic activity in Swiss albino mouse tail thrombosis model assessed as inhibition of k-carrageenan-induced thrombus formation administered orally for one week followed by k-carrageenan challenge 30 mins post last compound dose and measured after 24 to 72 hrs; format: functional, organism-based
Mus musculus [19] = test: Antithrombotic activity in Swiss albino mouse tail thrombosis model assessed as inhibition of k-carrageenan-induced thrombus formation at 50 mg/kg, po administered for one week followed by k-carrageenan challenge 30 mins post last compound dose and measured after 72 hrs; format: functional
[20] = target: Coagulation factor X (Homo sapiens) (UniProt P00742); test: Binding affinity to human factor 10a at 1.25 to 15 uM after 3 mins by fluorescence spectrometric analysis
Plasma [21] = test: Anticoagulant activity in human platelet poor plasma assessed as prolongation of calcium clotting time at 2.5 uM; format: functional, cell-free; conditions: TDE = time-dependent effect
Mus musculus [22] = test: Antithrombotic activity in Swiss albino mouse tail thrombosis model assessed as inhibition of k-carrageenan-induced thrombus formation at 12.5 mg/kg, po administered for one week followed by k-carrageenan challenge 30 mins post last compound dose and measured after 72 hrs; format: functional
Mus musculus [23] = test: Antithrombotic activity in Swiss albino mouse tail thrombosis model assessed as inhibition of k-carrageenan-induced thrombus formation at 50 mg/kg, po administered for one week followed by k-carrageenan challenge 30 mins post last compound dose and measured after 24 hrs; format: functional
Plasma [24] = test: Anticoagulant activity in human platelet poor plasma assessed as increase in prothrombin time at 1.25 to 15 uM after 3 mins; format: functional, cell-free
Blood [25] = test: Thrombolytic activity in goat non-heated blood clot assessed as clot lysed after 3 hrs (reference value: 2.1 +/- 0.3 mg/microM); format: functional, Capra hircus
Mus musculus [26] = test: Antithrombotic activity in Swiss albino mouse tail thrombosis model assessed as inhibition of k-carrageenan-induced thrombus formation at 12.5 mg/kg, po administered for one week followed by k-carrageenan challenge 30 mins post last compound dose and measured after 48 hrs; format: functional
Plasma [27] = test: Anticoagulant activity in human platelet poor plasma assessed as prolongation of calcium clotting time at 2.5 uM after 3 mins; format: functional, cell-free
Blood [28] = test: Thrombolytic activity in goat heated blood clot assessed as clot lysed after 3 hrs (reference value: 0.7 +/- 0.2 mg/microM); format: functional, Capra hircus
Mus musculus [29] = test: Antithrombotic activity in Swiss albino mouse tail thrombosis model assessed as inhibition of k-carrageenan-induced thrombus formation at 12.5 mg/kg, po administered for one week followed by k-carrageenan challenge 30 mins post last compound dose and measured after 24 hrs; format: functional
Prothrombin [30] = target: T1, Prothrombin; test: Inhibition of thrombin in human washed platelets assessed as reduction in thrombin-induced platelet aggregation after 5 mins
Erythrocyte = test: Hemolytic activity against human erythrocytes assessed as hemolysis at 2.5 to 50 uM after 90 mins; format: ADME, cell-based; conditions: 1.5 h
Mus musculus [31] = test: Antithrombotic activity in Swiss albino mouse tail thrombosis model assessed as inhibition of k-carrageenan-induced thrombus formation at 50 mg/kg, po administered for one week followed by k-carrageenan challenge 30 mins post last compound dose and measured after 48 hrs; format: functional
Blood [32] = test: Anticoagulant activity in goat whole blood assessed as prolongation of calcium clotting time after 3 mins; format: functional, tissue-based; conditions: Capra hircus
Blood [33] = test: Thrombolytic activity in goat heated blood clot assessed as plasmin activation at 1 uM using V0882 as substrate incubated for 20 mins measured for 15 mins in presence of serine protease inhibitor PMSF; format: functional, tissue-based; conditions: Capra hircus
Prothrombin [34] = target: T1, Prothrombin; test: Binding affinity to human thrombin at 1.25 to 15 uM after 3 mins by fluorescence spectrometric analysis
Mus musculus [35] = test: Antithrombotic activity in Swiss albino mouse tail thrombosis model assessed as inhibition of k-carrageenan-induced thrombus formation at 25 mg/kg, po administered for one week followed by k-carrageenan challenge 30 mins post last compound dose and measured after 72 hrs; format: functional
Plasma [36] = test: Anticoagulant activity in human platelet poor plasma assessed as prolongation of calcium clotting time after 3 mins; format: functional, cell-free
Prothrombin [37] = target: T1, Prothrombin; test: Inhibition of human thrombin assessed as prolongation of fibrinogen clotting time of thrombin
Plasma [38] = test: Anticoagulant activity in human platelet poor plasma assessed as activated partial thromboplastin time at 10 uM after 3 mins (reference value: 14.2 +/- 1.3 sec); format: functional
Prothrombin [39] = target: T1, Prothrombin; test: Inhibition of human thrombin using T1637 as substrate
Platelet [40] = test: Antiplatelet activity in human washed platelets up to 10 uM incubated for 5 mins measured after 300 secs; format: functional, cell-based
Platelet [41] = test: Antiplatelet activity in human platelet rich plasma up to 10 uM incubated for 5 mins measured after 300 secs; format: functional, cell-based

Which Time (Mus musculus [1]) does the source give for `CC1CNc2c(cccc2S(=O)(=O)N[C@@H](CCCNC(=N)N)C(=O)N2CC[C@@H](C)C[C@@H]2C(=O)O)C1` (some centres not stated) [ARGATROBAN] here?
Its Time is 143.5 s.

What about the Time (Mus musculus [2]) of the same molecule?
Its Time is 238.6 s.

What about the “fold change (FC)” value (Mus musculus [3]) of the same molecule?
The value was 2.3.

What about the “fold change (FC)” value (Mus musculus [4]) of the same molecule?
Its value is 4.

`CC[C@H](CC[C@@H](C)[C@H]1CC[C@H]2[C@@H]3CC=C4C[C@@H](O)CC[C@]4(C)[C@H]3CC[C@]12C)C(C)C` [BETA-SITOSTEROL] was tested. Which Activity (Blood [5]) did it give?
Its Activity is 15.8 mg/µM.

What about the Time (Mus musculus [1]) of the same molecule?
Its Time is 61 s.

And the Activity (Blood [6])?
The Activity was 9.2 mg/µM.

And the inhibition (Prothrombin [7])?
Its inhibition is “Dose-dependent effect”.

What about the Time (Mus musculus [2]) of the same molecule?
Its Time is 193.5 s.

And the inhibition (Prothrombin [8])?
The inhibition was “Active”.

And the Ki (Prothrombin [9])?
The Ki was 267 nM.

And the Activity (Mus musculus [10])?
The Activity was “inactive”.

What about the Ka (Prothrombin [11]) of the same molecule?
Its Ka is 109 M⁻¹.

What about the inhibition in vivo at 25 mg/kg (Mus musculus [12]) of the same molecule?
Its inhibition in vivo at 25 mg/kg is 31.3%.

What about the “fold change (FC)” value (Mus musculus [3]) of the same molecule?
Its value is 1.6.

And the Activity (HEK293)?
The Activity was “Non-Toxic”.

What about the inhibition in vivo at 25 mg/kg (Mus musculus [13]) of the same molecule?
Its inhibition in vivo at 25 mg/kg is 15.2%.

What about the Activity (Blood [14]) of the same molecule?
Its Activity is “Active”.

What about the inhibition [15] of the same molecule?
The inhibition was “inactive”.

And the Activity (Heterodera schachtii [16])?
Its Activity is “inactive”.

What about the inhibition (Heterodera schachtii [17]) of the same molecule?
The inhibition was “inactive”.

And the inhibition (Mus musculus [18])?
Its inhibition is “Dose-dependent effect”.

What about the inhibition in vivo at 50 mg/kg (Mus musculus [19]) of the same molecule?
The inhibition in vivo at 50 mg/kg was 47.3%.

What about the Activity [20] of the same molecule?
Its Activity is “inactive”.

And the Activity (Plasma [21])?
The Activity was “Tde”.

What about the inhibition in vivo at 12.5 mg/kg (Mus musculus [22]) of the same molecule?
Its inhibition in vivo at 12.5 mg/kg is 23.2%.

And the inhibition in vivo at 50 mg/kg (Mus musculus [23])?
The inhibition in vivo at 50 mg/kg was 23.4%.

And the Activity (Plasma [24])?
The Activity was “Active”.

And the Activity (Blood [25])?
Its Activity is 7.7 mg/µM.

What about the inhibition in vivo at 12.5 mg/kg (Mus musculus [26]) of the same molecule?
The inhibition in vivo at 12.5 mg/kg was 14.5%.

What about the Activity (Plasma [27]) of the same molecule?
Its Activity is “Active”.

And the Activity (Blood [28])?
Its Activity is 1 mg/µM.

And the inhibition in vivo at 12.5 mg/kg (Mus musculus [29])?
The inhibition in vivo at 12.5 mg/kg was 10.5%.

What about the inhibition (Prothrombin [30]) of the same molecule?
Its inhibition is “Dose-dependent effect”.

What about the Activity (Erythrocyte) of the same molecule?
The Activity was “Non-Toxic”.

What about the “fold change (FC)” value (Mus musculus [4]) of the same molecule?
Its value is 1.1.

What about the inhibition in vivo at 50 mg/kg (Mus musculus [31]) of the same molecule?
The inhibition in vivo at 50 mg/kg was 42.3%.

What about the Activity (Blood [32]) of the same molecule?
The Activity was “Dose-dependent effect”.

What about the Activity (Blood [33]) of the same molecule?
The Activity was “Active”.

And the Activity (Prothrombin [34])?
Its Activity is “Active”.

And the inhibition in vivo at 25 mg/kg (Mus musculus [35])?
The inhibition in vivo at 25 mg/kg was 36.5%.

What about the Activity (Plasma [36]) of the same molecule?
Its Activity is “Dose-dependent effect”.

And the inhibition (Prothrombin [37])?
The inhibition was “Dose-dependent effect”.

What about the APTT (Plasma [38]) of the same molecule?
Its APTT is 28.2 s.

What about the inhibition (Prothrombin [39]) of the same molecule?
The inhibition was “Dose-dependent effect”.

Which Activity (Platelet [40]) does the source give for `CC(=O)Oc1ccccc1C(=O)O` here?
The Activity was “Active”.

And the Activity (Platelet [41])?
The Activity was “Active”.

Reference: ChEMBL document CHEMBL4266047, “First Report of Plant-Derived β-Sitosterol with Antithrombotic, in Vivo Anticoagulant, and Thrombus-Preventing Activities in a Mouse Model” (J Nat Prod, 2018)
